{"source": "patent US20040132803A1", "about": "“Agent for the treatment of overactive bladder” (priority 2003, published 2004)", "key": {"[1]": {"test_system": "slowly-inactivating A-type K^+ currents", "experiment": "Voltage-clamp outward K^+ currents at HP −90 mV in unidentified DRG neurons", "format": "cell-based, rat", "details": "for K^+ current at HP: −90 mV, relative value (before compound = 1): unidentified DRG neurons", "protocol": "(§1) Experiments were performed on adult female Sprague Dawley rats. First and second series of the experiments were performed, respectively, in unidentified DRG neurons and a specific population of DRG neurons innervating the urinary bladder. The population of DRG neurons that innervate the urinary bladder were labeled by retrograde axonal transport of the fluorescent dye, Fast Blue (4% w/v) (Polyloy, Gross Umstadt, Germany), injected into the wall of the bladder in halothane-anesthetized animals 7 days before the dissociation. The dye was injected with a 28 gauge needle at three to six sites on the dorsal surface of the organ (5-6 μL per site, total volume of 20-30 μL). Each injection site was washed with saline to minimize contamination of adjacent organs with the dye.\n(§2) Freshly dissociated neurons from DRG were prepared from halothane-anesthetized animals. L6 and S1 DRG were dissected from animals and then dissociated in a shaking bath for 25 minutes at 35° C. with 5 mL DMEM (Sigma) containing 0.3 mg/mL trypsin (Type 3, Sigma), 1 mg/mL collagenase (Type 1, Sigma), and 0.1 mg/mL deoxyribonuclease (Type 4, Sigma). Trypsin inhibitor (Type 2a, Sigma) was then added thereto to neutralize the activity of trypsin. Individual DRG cell bodies were isolated by trituration and then plated on a poly-L-lysine-coated 35 mm Petri dishes.\n(§3) Dye-labeled primary afferent neurons that innervate the urinary bladder were identified using an inverted phase-contrast microscope (Nikon, Tokyo, Japan) with fluorescent attachments (UV-1A filter; excitation wavelength, 365 nm). Gigaohm-seal whole-cell recordings were performed at room temperature (20-22° C.) on each labeled neuron in a culture dish that usually contained three to seven labeled cells among a few hundred unlabeled neurons. The internal solution contained (in mmol/L): KCl 140, CaCl2 1, MgCl2 2, EGTA 11, HEPES 10, Mg-ATP 2, and Tris-GTP 0.4 adjusted to pH 7.4 with KOH. Patch electrodes had resistances of 1-4 MΩ when filled with the internal solution. Neurons were superfused at a flow rate of 1.5 mL/minutes with an external solution containing (in mmol/L): NaCl 150, KCl 5, CaCl2 2.5, MgCl2 1, HEPES 10, and D-glucose 10, adjusted to pH 7.4 with NaOH. All recordings were made with an Axopatch-1D patch-clamp amplifier (Axon Instruments, Foster City, Calif.), and data were acquired and analyzed by PCLAMP software (Axon Instruments).\nIn voltage-clamp recordings, outward K^+ currents and inward Na^+ currents were measured. For the isolation of K^+ currents, the external solution was changed to one containing (in mmol/L): choline-Cl 150, KOH 5, CaCl2 0.03, HEPES 10, Mg(OH)2 3, and D-glucose 10, adjusted to pH 7.4 with HCl.\nIn first series of experiments using unidentified DRG neurons, outward K^+ currents were evoked by voltage steps to +60 mV, 800 ms long from a holding potentials of −90 mV, this was followed by a 1-second conditioning prepulse to −20 mV followed by a second pulse to +60 mV, identical to the first in the sequence. In the second series of experiments using Fast Blue-labeled bladder afferent neurons, slowly-inactivating A-type K^+ currents were isolated by. subtraction of outward K^+ currents activated from a holding potential of −40 mV (on the condition of inactivation of the majority of slowly-inactivating A-type K^+ currents) from those activated from a holding potential of −120 mV (on the condition of full activation of slowly-inactivating A-type K^+ currents). A compound was added cumulatively, starting with a lower concentration. Currents were measured at the maximum (peak) and normalized to control (before addition of the compound)."}, "Na^+ currents": {"test_system": "Na^+ currents", "experiment": "Voltage-clamp inward Na^+ currents in DRG cells", "format": "cell-based, rat", "protocol": "as §1, §2, §3\nInward Na^+ currents were evoked by voltage steps to +60 mV, 800 ms long from a holding potential of −90 mV. Currents were measured at the maximum (peak) and normalized to control (before addition of the compound)."}}, "data": [{"compound": "C[C@](O)(C(=O)Nc1cccc2c1C(=O)c1sccc1CS2(=O)=O)C(F)(F)F", "note": "[Compound 1, (S)-(+)-N-(5,5-dioxido-10-oxo-4,10-dihydrothieno[3,2-c][l]benzothiepin-9-yl)-3,3,3-trifluoro-2-hydroxy-2-methylpropanamide]", "values": [{"measurement": "K^+ current at HP: −90 mV, relative value", "setting": "[1]; 1.0 × 10^−5 mol/L, in the presence of 5 μmol/L verapamil", "value": "0.99 ± 0.02"}, {"measurement": "K^+ current at HP: −90 mV, relative value", "setting": "[1]; 1.0 × 10^−5 mol/L, in the presence of 20 mmol/L tetraethylammonium", "value": "1.19 ± 0.01"}, {"measurement": "K^+ current at HP: −90 mV, relative value (before compound = 1)", "setting": "[1]; 1.0 × 10^−5 mol/L", "value": "0.96 ± 0.05"}, {"measurement": "K^+ current at HP: −90 mV, relative value", "setting": "[1]; 1.0 × 10^−6 mol/L, in the presence of 5 μmol/L verapamil", "value": "1.11 ± 0.03"}, {"measurement": "K^+ current at HP: −90 mV, relative value", "setting": "[1]; 1.0 × 10^−6 mol/L, in the presence of 20 mmol/L tetraethylammonium", "value": "1.19 ± 0.05"}, {"measurement": "K^+ current at HP: −90 mV, relative value (before compound = 1)", "setting": "[1]; 1.0 × 10^−6 mol/L", "value": "1.06 ± 0.02"}, {"measurement": "K^+ current at HP: −90 mV, relative value", "setting": "[1]; 1.0 × 10^−7 mol/L, in the presence of 5 μmol/L verapamil", "value": "1.13 ± 0.02"}, {"measurement": "K^+ current at HP: −90 mV, relative value", "setting": "[1]; 1.0 × 10^−7 mol/L, in the presence of 20 mmol/L tetraethylammonium", "value": "1.10 ± 0.01"}, {"measurement": "K^+ current at HP: −90 mV, relative value (before compound = 1)", "setting": "[1]; 1.0 × 10^−7 mol/L", "value": "1.12 ± 0.03"}, {"measurement": "K^+ current at HP: −90 mV, relative value (before compound = 1)", "setting": "[1]; 1.0 × 10^−8 mol/L", "value": "0.99 ± 0.08"}, {"measurement": "K^+ current at HP: −90 mV, relative value (before compound = 1)", "setting": "[1]; 2.5 × 10^−8 mol/L", "value": "1.07 ± 0.03"}, {"measurement": "K^+ current at HP: −90 mV, relative value", "setting": "[1]; 5.0 × 10^−4 mol/L, in the presence of 5 μmol/L verapamil", "value": "0.61 ± 0.05"}, {"measurement": "K^+ current at HP: −90 mV, relative value", "setting": "[1]; 5.0 × 10^−4 mol/L, in the presence of 20 mmol/L tetraethylammonium", "value": "0.29 ± 0.02"}, {"measurement": "K^+ current at HP: −90 mV, relative value", "setting": "[1]; 5.0 × 10^−4 mol/L, in the presence of 60 mmol/L tetraethylammonium", "value": "0.56 ± 0.05"}, {"measurement": "K^+ current at HP: −90 mV, relative value", "setting": "[1]; 5.0 × 10^−5 mol/L, in the presence of 5 μmol/L verapamil", "value": "0.94 ± 0.02"}, {"measurement": "K^+ current at HP: −90 mV, relative value", "setting": "[1]; 5.0 × 10^−5 mol/L, in the presence of 20 mmol/L tetraethylammonium", "value": "0.91 ± 0.04"}, {"measurement": "K^+ current at HP: −90 mV, relative value", "setting": "[1]; 5.0 × 10^−5 mol/L, in the presence of 60 mmol/L tetraethylammonium", "value": "1.15 ± 0.08"}, {"measurement": "K^+ current at HP: −90 mV, relative value (before compound = 1)", "setting": "[1]; 5.0 × 10^−5 mol/L", "value": "0.83 ± 0.09"}, {"measurement": "K^+ current at HP: −90 mV, relative value", "setting": "[1]; 5.0 × 10^−6 mol/L, in the presence of 5 μmol/L verapamil", "value": "1.02 ± 0.03"}, {"measurement": "K^+ current at HP: −90 mV, relative value", "setting": "[1]; 5.0 × 10^−6 mol/L, in the presence of 20 mmol/L tetraethylammonium", "value": "1.16 ± 0.03"}, {"measurement": "K^+ current at HP: −90 mV, relative value", "setting": "[1]; 5.0 × 10^−6 mol/L, in the presence of 60 mmol/L tetraethylammonium", "value": "1.14 ± 0.05"}, {"measurement": "K^+ current at HP: −90 mV, relative value", "setting": "[1]; 5.0 × 10^−7 mol/L, in the presence of 5 μmol/L verapamil", "value": "1.17 ± 0.03"}, {"measurement": "K^+ current at HP: −90 mV, relative value", "setting": "[1]; 5.0 × 10^−7 mol/L, in the presence of 20 mmol/L tetraethylammonium", "value": "1.15 ± 0.04"}, {"measurement": "K^+ current at HP: −90 mV, relative value", "setting": "[1]; 5.0 × 10^−7 mol/L, in the presence of 60 mmol/L tetraethylammonium", "value": "1.11 ± 0.03"}, {"measurement": "K^+ current at HP: −90 mV, relative value (before compound = 1)", "setting": "[1]; 5.0 × 10^−7 mol/L", "value": "1.15 ± 0.03"}, {"measurement": "K^+ current at HP: −90 mV, relative value", "setting": "[1]; 5.0 × 10^−8 mol/L, in the presence of 5 μmol/L verapamil", "value": "1.03 ± 0.02"}, {"measurement": "K^+ current at HP: −90 mV, relative value", "setting": "[1]; 5.0 × 10^−8 mol/L, in the presence of 20 mmol/L tetraethylammonium", "value": "1.08 ± 0.02"}, {"measurement": "K^+ current at HP: −90 mV, relative value", "setting": "[1]; 5.0 × 10^−8 mol/L, in the presence of 60 mmol/L tetraethylammonium", "value": "1.08 ± 0.02"}, {"measurement": "K^+ current at HP: −90 mV, relative value (before compound = 1)", "setting": "[1]; 5.0 × 10^−8 mol/L", "value": "1.07 ± 0.02"}, {"measurement": "K^+ current at HP: −90 mV, relative value", "setting": "[1]; 5.0 × 10^−9 mol/L, in the presence of 20 mmol/L tetraethylammonium", "value": "1.02 ± 0.02"}, {"measurement": "K^+ current at HP: −90 mV, relative value (before compound = 1)", "setting": "[1]; 5.0 × 10^−9 mol/L", "value": "1.01 ± 0.03"}, {"measurement": "peak compound concentration for increase of slowly-inactivating A-type K^+ currents", "setting": "[1]; unidentified DRG cells, HP −90 mV", "value": "1e-07 to 5e-07", "unit": "mol/L"}, {"measurement": "influence upon Na^+ currents", "setting": "Na^+ currents", "value": "does not exert influence"}, {"measurement": "Na^+ ion currents, normalized to control", "setting": "Na^+ currents; 1.0 × 10^−6 mol/L", "value": "0.99 ± 0.02"}, {"measurement": "Na^+ ion currents, normalized to control", "setting": "Na^+ currents; 5.0 × 10^−4 mol/L", "value": "1.00 ± 0.01"}, {"measurement": "Na^+ ion currents, normalized to control", "setting": "Na^+ currents; 5.0 × 10^−5 mol/L", "value": "1.00 ± 0.01"}, {"measurement": "Na^+ ion currents, normalized to control", "setting": "Na^+ currents; 5.0 × 10^−6 mol/L", "value": "1.00 ± 0.00"}, {"measurement": "Na^+ ion currents, normalized to control", "setting": "Na^+ currents; 5.0 × 10^−7 mol/L", "value": "0.99 ± 0.01"}, {"measurement": "Na^+ ion currents, normalized to control", "setting": "Na^+ currents; 5.0 × 10^−8 mol/L", "value": "0.99 ± 0.01"}]}]}
